The source of these data is patent publication US20240034731A1, “AZA-QUINAZOLINE COMPOUNDS AND METHODS OF USE” (Iambic Therapeutics, Inc., priority 2022, published 2024).

The target in one assay is CDK1/Cyclin B1 (Homo sapiens (Human), UniProt P06493). In words: CDK1/Cyclin B1 ADP-Glo Kinase Assay. Format: biochemical. The following applies: ADP-Glo, 80 uM ATP; read-out: CDK1 Cyclin B1 IC50. The method, then: CDK1/Cyclin B1 ADP-Glo Kinase Assay
(§1) The purpose of CDK1/Cyclin B1 assay is to evaluate the inhibition (% inhibition and IC50 values) of small molecule inhibitors by using a Luminescent based ADP-Glo assay. CDK1/Cyclin B1 catalyzes the production of ADP from ATP. ADP-Glo assay monitors ADP producing biochemical reactions. ADP-Glo is performed in 2 steps upon completion of kinase reaction: a combined termination of kinase reaction and depletion of remaining ATP in the first step, and conversion of generated ADP to ATP and the newly produced ATP to light output using luciferase/luciferin reaction in the second step. The luminescent signal generated is proportional to the ADP concentration produced and is correlated with the kinase activity. CDK1/Cyclin B1 was purchased from Carna (Cat 04-102). […] The assay was initiated with the addition of ATP-containing substrate solution, following a 30-minute pre-incubation of enzyme and inhibitor at room temperature in the reaction mixture. The reaction was stopped after 90 minutes at room temperature by the addition of 10 uL of ADP-GLO Reagent. After a 90 minute incubation, 20 uL of Kinase Detection Reagent was added. Samples were incubated for 40 minutes, after which plate well luminescence was measured on a Envision microplate reader. The IC50 determinations were made from a plot of the fractional velocity as a function of inhibitor concentration fit to the 4 parameters IC50 equation.
(In general: In ADP-Glo the light output rises with the ADP produced.)

Another assay deals with CDK4/Cyclin D1 (Homo sapiens (Human), UniProt P11802). Nature of the assay: CDK4/Cyclin D1 CHEF Assay (AQT0258 peptide). As to conditions: 200 uM ATP, read-out: CDK4/ CyclinD1 AQT IC50. Format: biochemical. An excerpt: CDK4/Cyclin D1 CHEF Assay
The purpose of CDK4/Cyclin D1 assay is to evaluate the inhibition (% inhibition and IC50 values) of small molecule inhibitors by using a Chelation-Enhance Fluorescence (CHEF) assay. In a CHEF assay, phosphorylation of a peptide substrate results in proportional increase in fluorescence. CHEF kinase assay use peptide substrates containing a synthetic alpha-amino acid with a side chain bearing an 8-hydroxyquinoline derivative (sulfonamido-oxide, Sox). Upon phosphorylation of a nearby serine, threonine or tyrosine and in the presence of Mg(II), the spectral properties of the Sox residue are altered, emitting 485 nm wavelength light when excited with a 360 nm wavelength light source. CDK4/Cyclin D1 catalyzes the phosphoryl transfer to the SOX-labeled substrate peptide AQT0258 from Assayquant Technologies. […] The reaction was initiated with the addition of substrate solution, following a 30-minute pre-incubation of enzyme and inhibitor at 22° C. in the reaction mix. Reactions were allowed to proceed for 3 hrs at 22° C., followed by fluorescence read of the reaction. The IC50 determinations were made from a plot of the fractional velocity as a function of inhibitor concentration fit to the 4 parameters IC50 equation.

Another assay concerns the target CDK2/Cyclin E1 (Homo sapiens (Human), UniProt P24941). Nature of the assay: CDK2/Cyclin E1 Full length ADP-Glo Kinase Assay. Format: biochemical. The following applies: 20 uM ATP, read-out: CDK2/ CyclinE1 IC50. The method, then:
CDK2/Cyclin E1 Full length ADP-Glo Kinase Assay
as §1, with “of CDK2/Cyclin E1” for “of CDK1/Cyclin B1”, “assay. CDK2/Cyclin E1 full length” for “assay. CDK1/Cyclin B1”, “activity. CDK2/Cyclin E1” for “activity. CDK1/Cyclin B1”, “from Eurofins” for “from Carna”, “(Cat 14-475M).” for “(Cat 04-102).”

Another assay concerns MCF-7 cells. In words: Cell Growth Inhibition, MCF-7 (CellTiterGlo, 6 days). The format is cell-based. The following applies: Homo sapiens, MCF7, 144 h, MCF-7, 6-day treatment. An excerpt: (§2) MCF-7 and OVCAR-3 cells were used to evaluate the anti-proliferation activity of the CDK inhibitors. MCF-7 (ATCC, HTB-22) cells are epithelial cells from a patient with ER+ metastatic adenocarcinoma. OVCAR-3 (ATCC, HTB-161) cells were derived from malignant ascites of a patient with ovarian cancer and are known to have CCNE1 amplification. Both cell lines were maintained in RPMI media supplemented with 10% fetal bovine serum. For cell growth inhibition assay, CDK inhibitors in DMSO solution were dispensed with either Echo 655 (Beckman Coulter) or Tecan D300e (HP) into 384-well plates (Corning #3765) and the 384-well plates were UV-sterilized prior to the assay. The inhibitors were typically tested in the 10-10,000 nM concentration range with half-log serial dilutions. MCF-7 or OVCAR-3 (500 cells/30 μL/well) were added to each well using Multidrop Combi (ThermoFisher) using standard cassettes. The assay plates with cells were cultured at 37° C., 5% CO2 for 6 days. At the end of the 6-day treatment, 30 μL of CellTiterGlo 2.0 (Promega) was added to each well and the luminescent signal was read using CLARIOstar plus (BMG). The percentage of cell growth inhibition (% CGI) was calculated using the following formula 00 CGI=100-100×luminescencesampie/luminescencecontroi. The half maximal inhibitory concentration (IC50) was determined by nonlinear curve fitting (four parameters, variable slope).
For orientation: ATP-based viability assays read luminescence as a measure of living cells.

In another assay the test system is OVCAR-3 cells. In words: Cell Growth Inhibition, OVCAR-3 (CellTiterGlo, 6 days). The format is cell-based. The following applies: Homo sapiens, 144 h, OVCAR-3, 6-day treatment.
Description: as §2

The next assay has as its target CDK6/Cyclin D3 (Homo sapiens (Human), UniProt Q00534). Nature of the assay: CDK6/Cyclin D3 ADP-Glo Kinase Assay. Format: biochemical. The following applies: 100 uM ATP, read-out: CDK6/ CyclinD3 IC50. The protocol: CDK6/Cyclin D3 ADP-Glo Kinase Assay
The purpose of the CDK6/Cyclin D3 assay is to evaluate the inhibition (% inhibition and IC50 values) in the presence of small molecule inhibitors by using a Luminescent based ADP-Glo assay. CDK6/Cyclin D3 catalyzes the production of ADP from ATP. ADP-Glo assay monitors ADP producing biochemical reactions. ADP-Glo is performed in 2 steps upon completion of kinase reaction: a combined termination of kinase reaction and depletion of remaining ATP in the first step, and conversion of generated ADP to […] and the newly produced ATP to light output using luciferase/luciferin reaction in the second step. The luminescent signal generated is proportional to the ADP concentration produced and is correlated with the kinase activity CDK6/Cyclin D3 was purchased from Carna. […] The assay was initiated with the addition of ATP-containing substrate solution, following a 30-minute pre-incubation of enzyme and inhibitor at room temperature in the reaction mixture. The reaction was stopped after 90 minutes at room temperature by the addition of 10 uL of ADP-GLO Reagent. After a 90-minute incubation, 20 uL of Kinase Detection Reagent was added. Samples were incubated for 40 minutes, after which plate well luminescence was measured on a Envision microplate reader. The IC50 determinations were made from a plot of the fractional velocity as a function of inhibitor concentration fit to the 4 parameters IC50 equation.

SMILES strings stand for the structures. Where only a bound is given, the exact number is not on record here.

Chain of CDK1/Cyclin B1 (P06493 whole entry): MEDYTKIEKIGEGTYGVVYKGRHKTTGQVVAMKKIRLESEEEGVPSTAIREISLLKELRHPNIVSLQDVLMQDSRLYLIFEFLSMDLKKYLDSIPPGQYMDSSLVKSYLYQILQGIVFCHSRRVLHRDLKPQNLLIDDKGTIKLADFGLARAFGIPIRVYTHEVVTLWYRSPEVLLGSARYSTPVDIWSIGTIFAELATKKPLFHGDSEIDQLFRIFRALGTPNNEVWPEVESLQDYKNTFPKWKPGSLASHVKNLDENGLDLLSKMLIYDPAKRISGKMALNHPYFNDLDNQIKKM
Chain of CDK1/Cyclin B1 (P14635 whole entry partner): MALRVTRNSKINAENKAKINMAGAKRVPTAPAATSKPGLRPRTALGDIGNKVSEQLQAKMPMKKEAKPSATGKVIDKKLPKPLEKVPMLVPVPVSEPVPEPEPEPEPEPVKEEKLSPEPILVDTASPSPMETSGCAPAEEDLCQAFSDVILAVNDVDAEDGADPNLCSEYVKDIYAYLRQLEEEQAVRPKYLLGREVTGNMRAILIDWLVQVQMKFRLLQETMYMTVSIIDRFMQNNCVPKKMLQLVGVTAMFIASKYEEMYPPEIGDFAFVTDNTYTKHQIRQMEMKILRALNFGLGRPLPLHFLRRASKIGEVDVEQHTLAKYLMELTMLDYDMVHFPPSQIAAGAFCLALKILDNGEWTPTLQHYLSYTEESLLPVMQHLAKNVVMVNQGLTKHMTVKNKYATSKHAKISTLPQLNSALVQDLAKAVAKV
Chain of CDK6/Cyclin D3 (Q00534 whole entry): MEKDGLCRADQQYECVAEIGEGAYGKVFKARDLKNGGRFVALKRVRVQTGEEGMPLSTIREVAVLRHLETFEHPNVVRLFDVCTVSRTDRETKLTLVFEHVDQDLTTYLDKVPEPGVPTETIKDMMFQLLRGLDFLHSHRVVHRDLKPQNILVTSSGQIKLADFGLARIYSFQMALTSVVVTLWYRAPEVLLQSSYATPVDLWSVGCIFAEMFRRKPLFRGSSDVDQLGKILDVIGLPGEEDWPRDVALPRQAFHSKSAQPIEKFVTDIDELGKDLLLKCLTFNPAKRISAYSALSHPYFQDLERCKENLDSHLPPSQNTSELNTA
Chain of CDK6/Cyclin D3 (P30281 whole entry partner): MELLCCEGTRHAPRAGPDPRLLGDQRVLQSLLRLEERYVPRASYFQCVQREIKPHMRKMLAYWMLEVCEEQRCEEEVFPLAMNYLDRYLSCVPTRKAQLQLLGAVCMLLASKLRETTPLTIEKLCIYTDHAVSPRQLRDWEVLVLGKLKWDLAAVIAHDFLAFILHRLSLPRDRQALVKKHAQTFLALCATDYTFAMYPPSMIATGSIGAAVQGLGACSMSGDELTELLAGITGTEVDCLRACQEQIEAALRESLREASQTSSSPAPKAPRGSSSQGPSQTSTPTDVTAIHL
Chain of CDK4/Cyclin D1 (P11802 whole entry): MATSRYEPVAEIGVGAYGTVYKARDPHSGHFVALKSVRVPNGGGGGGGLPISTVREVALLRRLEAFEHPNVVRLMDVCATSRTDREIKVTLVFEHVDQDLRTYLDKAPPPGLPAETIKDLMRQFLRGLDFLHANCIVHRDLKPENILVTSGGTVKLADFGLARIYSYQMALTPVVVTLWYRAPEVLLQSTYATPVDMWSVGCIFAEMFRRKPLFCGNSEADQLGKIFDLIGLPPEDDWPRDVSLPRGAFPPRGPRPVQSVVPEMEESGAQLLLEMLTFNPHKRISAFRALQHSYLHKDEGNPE
Chain of CDK4/Cyclin D1 (P24385 whole entry partner): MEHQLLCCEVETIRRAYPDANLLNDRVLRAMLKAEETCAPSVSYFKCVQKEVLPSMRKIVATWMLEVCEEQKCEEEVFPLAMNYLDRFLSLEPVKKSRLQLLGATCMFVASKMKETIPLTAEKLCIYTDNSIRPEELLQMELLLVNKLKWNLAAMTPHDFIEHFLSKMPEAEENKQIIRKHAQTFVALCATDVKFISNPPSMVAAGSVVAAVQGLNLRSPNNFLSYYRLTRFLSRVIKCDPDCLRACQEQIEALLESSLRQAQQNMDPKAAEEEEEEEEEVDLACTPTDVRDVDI

`Cc1cc2cnc(Nc3ccc(N4CC5(CN(C)C5)C4)cc3)nc2c(N2CCC(C#N)(C3CC3)C2)n1` (stereo not drawn) [Compound 28, 3-cyclopropyl-1-(6-methyl-2-((4-(6-methyl-2,6-diazaspiro[3.3]heptan-2-yl)phenyl)amino)pyrido[3,4-d]pyrimidin-8-yl)pyrrolidine-3-carbonitrile]: the IC50 is 500 to 2000 nM on CDK1/Cyclin B1; less than 200 nM at CDK4/Cyclin D1; less than 200 nM on CDK2/Cyclin E1; 500 to 2000 nM with MCF-7 cells; 500 to 2000 nM in the assay on OVCAR-3 cells; less than 200 nM at CDK6/Cyclin D3.

With `Cc1cc2cnc(Nc3ccc4c(c3)CN(C3CN(S(C)(=O)=O)C3)C4)nc2c(N2CC3(CN(C)C3)C2)n1` [Compound 29, 6-methyl-8-(6-methyl-2,6-diazaspiro[3.3]heptan-2-yl)-N-(2-(1-(methylsulfonyl)azetidin-3-yl)isoindolin-5-yl)pyrido[3,4-d]pyrimidin-2-amine], the IC50 on CDK1/Cyclin B1 was greater than 2000 nM; on CDK4/Cyclin D1, less than 200 nM; at CDK2/Cyclin E1 it was 200 to 500 nM; with MCF-7 cells, greater than 2000 nM; in the assay on OVCAR-3 cells, greater than 2000 nM; at CDK6/Cyclin D3, 500 to 2000 nM.

For `Cc1cc2cnc(Nc3ccc(N4CC5(CN(C)C5)C4)cc3)nc2c(N2CC3(C2)CS(=O)(=O)C3)n1` [Compound 30, 6-(6-methyl-2-((4-(6-methyl-2,6-diazaspiro[3.3]heptan-2-yl)phenyl)amino)pyrido[3,4-d]pyrimidin-8-yl)-2-thia-6-azaspiro[3.3]heptane 2,2-dioxide], the IC50 on CDK1/Cyclin B1 is greater than 2000 nM; at CDK4/Cyclin D1 it was 200 to 500 nM; on CDK2/Cyclin E1, 200 to 500 nM; in the assay with MCF-7 cells it was greater than 2000 nM; in the assay on OVCAR-3 cells, greater than 2000 nM; at CDK6/Cyclin D3 it was 200 to 500 nM.

As to `Cc1cc2cnc(Nc3cnn(C4CN(CC#N)C4)c3)nc2c(N2CC3(CN(C)C3)C2)n1` [Compound 31, 2-(3-(4-((6-methyl-8-(6-methyl-2,6-diazaspiro[3.3]heptan-2-yl)pyrido[3,4-d]pyrimidin-2-yl)amino)-1H-pyrazol-1-yl)azetidin-1-yl)acetonitrile], the IC50 on CDK1/Cyclin B1 is greater than 2000 nM; on CDK4/Cyclin D1, greater than 2000 nM; on CDK2/Cyclin E1 it was less than 200 nM; in the assay on MCF-7 cells, greater than 2000 nM; with OVCAR-3 cells it was greater than 2000 nM; on CDK6/Cyclin D3, greater than 2000 nM.

As for `Cc1cc2cnc(NC3CCN(S(=O)(=O)C4CC4)CC3)nc2c(N2CC3(CNC3)C2)n1` [Compound 32, N-(1-(cyclopropylsulfonyl)piperidin-4-yl)-6-methyl-8-(2,6-diazaspiro[3.3]heptan-2-yl)pyrido[3,4-d]pyrimidin-2-amine], the IC50 is 500 to 2000 nM on CDK1/Cyclin B1; less than 200 nM on CDK4/Cyclin D1; less than 200 nM on CDK2/Cyclin E1; 500 to 2000 nM in the assay on MCF-7 cells; 500 to 2000 nM with OVCAR-3 cells; less than 200 nM on CDK6/Cyclin D3.

In the case of `Cc1cc2cnc(Nc3cnn(C4CC5(C4)CN(C)C5)c3)nc2c(N2CCC3(C2)CC3(F)F)n1` (stereo not drawn) [Compound 33, 8-(1,1-difluoro-5-azaspiro[2.4]heptan-5-yl)-6-methyl-N-(1-(2-methyl-2-azaspiro[3.3]heptan-6-yl)-1H-pyrazol-4-yl)pyrido[3,4-d]pyrimidin-2-amine], the IC50 was 500 to 2000 nM on CDK1/Cyclin B1; less than 200 nM on CDK4/Cyclin D1; 200 to 500 nM at CDK2/Cyclin E1; 500 to 2000 nM in the assay with MCF-7 cells; 500 to 2000 nM with OVCAR-3 cells; less than 200 nM on CDK6/Cyclin D3.

Consider `Cc1cc2cnc(Nc3ccc(N4CC5(CN(C)C5)C4)cc3)nc2c(N2CCC3(C2)CC3(F)F)n1` (stereo not drawn) [Compound 34, 8-(1,1-difluoro-5-azaspiro[2.4]heptan-5-yl)-6-methyl-N-(4-(6-methyl-2,6-diazaspiro[3.3]heptan-2-yl)phenyl)pyrido[3,4-d]pyrimidin-2-amine], for which the IC50 on CDK1/Cyclin B1 is 500 to 2000 nM; at CDK4/Cyclin D1, less than 200 nM; on CDK2/Cyclin E1, less than 200 nM; in the assay on MCF-7 cells it was 500 to 2000 nM; in the assay with OVCAR-3 cells, 500 to 2000 nM; on CDK6/Cyclin D3, less than 200 nM.

`Cc1cc2cnc(Nc3ccc(N4CC5(CN(C)C5)C4)cc3)nc2c(N2CCC3(CCOCC3)C2)n1` [Compound 35, 6-methyl-N-(4-(6-methyl-2,6-diazaspiro[3.3]heptan-2-yl)phenyl)-8-(8-oxa-2-azaspiro[4.5]decan-2-yl)pyrido[3,4-d]pyrimidin-2-amine]: the IC50 on CDK1/Cyclin B1 is greater than 2000 nM; on CDK4/Cyclin D1, less than 200 nM; on CDK2/Cyclin E1, 200 to 500 nM; in the assay on MCF-7 cells it was 500 to 2000 nM; in the assay on OVCAR-3 cells, 500 to 2000 nM; on CDK6/Cyclin D3 it was less than 200 nM.

With `Cc1cc2cnc(Nc3cnn(CC4(N(C)C)CC4)c3)nc2c(N2CCC3(C2)CC3(F)F)n1` (stereo not drawn) [Compound 36, 8-(1,1-difluoro-5-azaspiro[2.4]heptan-5-yl)-N-(1-((1-(dimethylamino)cyclopropyl)methyl)-1H-pyrazol-4-yl)-6-methylpyrido[3,4-d]pyrimidin-2-amine], the IC50 at CDK1/Cyclin B1 was greater than 2000 nM; at CDK4/Cyclin D1, 200 to 500 nM; at CDK2/Cyclin E1 it was 200 to 500 nM; in the assay on MCF-7 cells, greater than 2000 nM; in the assay on OVCAR-3 cells, greater than 2000 nM; on CDK6/Cyclin D3, 500 to 2000 nM.
